Calls of active or inactive are those of the source. Non-standard residues stand in square brackets, D forms with d. Residues, ends and D or L forms follow the SMILES beside them. hArg = N=C(N)NCCCC[C@H](N)C(=O)O; Agb = N=C(N)NCC[C@H](N)C(=O)O; Agp = N=C(N)NC[C@H](N)C(=O)O; Orn = NCCC[C@H](N)C(=O)O; Dab = NCC[C@H](N)C(=O)O; Dap = NC[C@H](N)C(=O)O
Experiments:
Staphylococcus aureus [1] = test: Antibacterial activity against methicillin-resistant Staphylococcus aureus assessed as alteration in bacterial growth incubated for overnight by microtiter plate based spectrophotometric analysis; format: functional, organism-based
Staphylococcus aureus [2] = test: Antibiofilm activity against methicillin-resistant Staphylococcus aureus assessed as inhibition of biofilm formation by measuring residual biofilm growth incubated for overnight at 10-fold dilution by crystal violet staining based microtiter plate assay relative to control; format: functional
Staphylococcus aureus [3] = test: Antibiofilm activity against methicillin-resistant Staphylococcus aureus assessed as inhibition of biofilm formation incubated for overnight by crystal violet staining based microtiter plate assay; format: functional, organism-based

With `CC[C@H](C)[C@H](NC(=O)[C@H](CCCNC(=N)N)NC(=O)[C@@H](NC(=O)[C@H](C)NC(=O)[C@@H](NC(=O)[C@@H](NC(=O)[C@H](CC(C)C)NC(=O)[C@H](CCCNC(=N)N)NC(=O)[C@@H](N)C(C)C)[C@@H](C)CC)C(C)C)C(C)C)C(=O)N[C@@H](Cc1c[nH]c2ccccc12)C(=O)N[C@@H](CCCNC(=N)N)C(=O)N[C@@H](CCNC(=N)N)C(N)=O` (H-VRLIVAVRIWR[Agb]-NH2) the Activity (Staphylococcus aureus [1]) was “Active”, the “residual biofilm growth (% of control)” value (Staphylococcus aureus [2]) was 39.9% and the inhibition (Staphylococcus aureus [3]) was “Dose-dependent effect”.
For `CC[C@H](C)[C@H](NC(=O)[C@H](CCCNC(=N)N)NC(=O)[C@@H](NC(=O)[C@H](C)NC(=O)[C@@H](NC(=O)[C@@H](NC(=O)[C@H](CC(C)C)NC(=O)[C@H](CCCNC(=N)N)NC(=O)[C@@H](N)C(C)C)[C@@H](C)CC)C(C)C)C(C)C)C(=O)N[C@@H](Cc1c[nH]c2ccccc12)C(=O)N[C@@H](CCCNC(=N)N)C(=O)N[C@@H](CNC(=N)N)C(N)=O` (H-VRLIVAVRIWR[Agp]-NH2), the Activity (Staphylococcus aureus [2]) was “inactive”.
With `CC[C@H](C)[C@H](NC(=O)[C@H](CCCNC(=N)N)NC(=O)[C@@H](NC(=O)[C@H](C)NC(=O)[C@@H](NC(=O)[C@@H](NC(=O)[C@H](CC(C)C)NC(=O)[C@H](CCCNC(=N)N)NC(=O)[C@@H](N)C(C)C)[C@@H](C)CC)C(C)C)C(C)C)C(=O)N[C@@H](Cc1c[nH]c2ccccc12)C(=O)N[C@@H](CCCNC(=N)N)C(=O)N[C@@H](CCN)C(N)=O` (H-VRLIVAVRIWR[Dab]-NH2) the Activity (Staphylococcus aureus [2]) was “inactive”.
`CC[C@H](C)[C@H](NC(=O)[C@H](CCCNC(=N)N)NC(=O)[C@@H](NC(=O)[C@H](C)NC(=O)[C@@H](NC(=O)[C@@H](NC(=O)[C@H](CC(C)C)NC(=O)[C@H](CCCNC(=N)N)NC(=O)[C@@H](N)C(C)C)[C@@H](C)CC)C(C)C)C(C)C)C(=O)N[C@@H](Cc1c[nH]c2ccccc12)C(=O)N[C@@H](CCCNC(=N)N)C(=O)N[C@@H](CN)C(N)=O` (H-VRLIVAVRIWR[Dap]-NH2) was tested, and the Activity (Staphylococcus aureus [1]) was “Active”, the “residual biofilm growth (% of control)” value (Staphylococcus aureus [2]) was 11.9% and the inhibition (Staphylococcus aureus [3]) was “Dose-dependent effect”.
For `CC[C@H](C)[C@H](NC(=O)[C@H](CCCNC(=N)N)NC(=O)[C@@H](NC(=O)[C@H](C)NC(=O)[C@@H](NC(=O)[C@@H](NC(=O)[C@H](CC(C)C)NC(=O)[C@H](CCCNC(=N)N)NC(=O)[C@@H](N)C(C)C)[C@@H](C)CC)C(C)C)C(C)C)C(=O)N[C@@H](Cc1c[nH]c2ccccc12)C(=O)N[C@@H](CCCNC(=N)N)C(=O)N[C@@H](CCCN)C(N)=O` (H-VRLIVAVRIWR[Orn]-NH2), the Activity (Staphylococcus aureus [1]) was “Active”, the “residual biofilm growth (% of control)” value (Staphylococcus aureus [2]) was 7.3% and the inhibition (Staphylococcus aureus [3]) was “Dose-dependent effect”.
`CC[C@H](C)[C@H](NC(=O)[C@H](CCCNC(=N)N)NC(=O)[C@@H](NC(=O)[C@H](C)NC(=O)[C@@H](NC(=O)[C@@H](NC(=O)[C@H](CC(C)C)NC(=O)[C@H](CCCNC(=N)N)NC(=O)[C@@H](N)C(C)C)[C@@H](C)CC)C(C)C)C(C)C)C(=O)N[C@@H](Cc1c[nH]c2ccccc12)C(=O)N[C@@H](CCCNC(=N)N)C(=O)N[C@@H](CCCCNC(=N)N)C(N)=O` (H-VRLIVAVRIWR[hArg]-NH2) was tested, and the Activity (Staphylococcus aureus [1]) was “Active”, the “residual biofilm growth (% of control)” value (Staphylococcus aureus [2]) was 8.5% and the inhibition (Staphylococcus aureus [3]) was “Dose-dependent effect”.
`CC[C@H](C)[C@H](NC(=O)[C@H](CCCNC(=N)N)NC(=O)[C@@H](NC(=O)[C@H](C)NC(=O)[C@@H](NC(=O)[C@@H](NC(=O)[C@H](CC(C)C)NC(=O)[C@H](CCCNC(=N)N)NC(=O)[C@@H](N)C(C)C)[C@@H](C)CC)C(C)C)C(C)C)C(=O)N[C@@H](Cc1c[nH]c2ccccc12)C(=O)N[C@@H](CCNC(=N)N)C(=O)N[C@@H](CCCNC(=N)N)C(N)=O` (H-VRLIVAVRIW[Agb]R-NH2) was tested, and the Activity (Staphylococcus aureus [2]) was “inactive”.
For `CC[C@H](C)[C@H](NC(=O)[C@H](CCCNC(=N)N)NC(=O)[C@@H](NC(=O)[C@H](C)NC(=O)[C@@H](NC(=O)[C@@H](NC(=O)[C@H](CC(C)C)NC(=O)[C@H](CCCNC(=N)N)NC(=O)[C@@H](N)C(C)C)[C@@H](C)CC)C(C)C)C(C)C)C(=O)N[C@@H](Cc1c[nH]c2ccccc12)C(=O)N[C@@H](CNC(=N)N)C(=O)N[C@@H](CCCNC(=N)N)C(N)=O` (H-VRLIVAVRIW[Agp]R-NH2), the Activity (Staphylococcus aureus [2]) was “inactive”.
With `CC[C@H](C)[C@H](NC(=O)[C@H](CCCNC(=N)N)NC(=O)[C@@H](NC(=O)[C@H](C)NC(=O)[C@@H](NC(=O)[C@@H](NC(=O)[C@H](CC(C)C)NC(=O)[C@H](CCCNC(=N)N)NC(=O)[C@@H](N)C(C)C)[C@@H](C)CC)C(C)C)C(C)C)C(=O)N[C@@H](Cc1c[nH]c2ccccc12)C(=O)N[C@@H](CCN)C(=O)N[C@@H](CCCNC(=N)N)C(N)=O` (H-VRLIVAVRIW[Dab]R-NH2) the Activity (Staphylococcus aureus [2]) was “inactive”.
For `CC[C@H](C)[C@H](NC(=O)[C@H](CCCNC(=N)N)NC(=O)[C@@H](NC(=O)[C@H](C)NC(=O)[C@@H](NC(=O)[C@@H](NC(=O)[C@H](CC(C)C)NC(=O)[C@H](CCCNC(=N)N)NC(=O)[C@@H](N)C(C)C)[C@@H](C)CC)C(C)C)C(C)C)C(=O)N[C@@H](Cc1c[nH]c2ccccc12)C(=O)N[C@@H](CN)C(=O)N[C@@H](CCCNC(=N)N)C(N)=O` (H-VRLIVAVRIW[Dap]R-NH2), the Activity (Staphylococcus aureus [1]) was “Active”, the “residual biofilm growth (% of control)” value (Staphylococcus aureus [2]) was 19.9% and the inhibition (Staphylococcus aureus [3]) was “Dose-dependent effect”.
In the case of `CC[C@H](C)[C@H](NC(=O)[C@H](CCCNC(=N)N)NC(=O)[C@@H](NC(=O)[C@H](C)NC(=O)[C@@H](NC(=O)[C@@H](NC(=O)[C@H](CC(C)C)NC(=O)[C@H](CCCNC(=N)N)NC(=O)[C@@H](N)C(C)C)[C@@H](C)CC)C(C)C)C(C)C)C(=O)N[C@@H](Cc1c[nH]c2ccccc12)C(=O)N[C@@H](CCCN)C(=O)N[C@@H](CCCNC(=N)N)C(N)=O` (H-VRLIVAVRIW[Orn]R-NH2), the Activity (Staphylococcus aureus [1]) is reported as “Active”, the “residual biofilm growth (% of control)” value (Staphylococcus aureus [2]) is reported as 12.3% and the inhibition (Staphylococcus aureus [3]) is reported as “Dose-dependent effect”.
With `CC[C@H](C)[C@H](NC(=O)[C@H](CCCNC(=N)N)NC(=O)[C@@H](NC(=O)[C@H](C)NC(=O)[C@@H](NC(=O)[C@@H](NC(=O)[C@H](CC(C)C)NC(=O)[C@H](CCCNC(=N)N)NC(=O)[C@@H](N)C(C)C)[C@@H](C)CC)C(C)C)C(C)C)C(=O)N[C@@H](Cc1c[nH]c2ccccc12)C(=O)N[C@@H](CCCCNC(=N)N)C(=O)N[C@@H](CCCNC(=N)N)C(N)=O` (H-VRLIVAVRIW[hArg]R-NH2) the Activity (Staphylococcus aureus [1]) was “Active”, the “residual biofilm growth (% of control)” value (Staphylococcus aureus [2]) was 10.8% and the inhibition (Staphylococcus aureus [3]) was “Dose-dependent effect”.
For `CC[C@H](C)[C@H](NC(=O)[C@H](CCCNC(=N)N)NC(=O)[C@@H](NC(=O)[C@H](C)NC(=O)[C@@H](NC(=O)[C@@H](NC(=O)[C@H](CC(C)C)NC(=O)[C@H](CCCNC(=N)N)NC(=O)[C@@H](N)C(C)C)[C@@H](C)CC)C(C)C)C(C)C)C(=O)N[C@@H](CCNC(=N)N)C(=O)N[C@@H](CCCNC(=N)N)C(=O)N[C@@H](CCCNC(=N)N)C(N)=O` (H-VRLIVAVRI[Agb]RR-NH2), the Activity (Staphylococcus aureus [1]) was “Active”, the “residual biofilm growth (% of control)” value (Staphylococcus aureus [2]) was 103.7% and the inhibition (Staphylococcus aureus [3]) was “Dose-dependent effect”.
With `CC[C@H](C)[C@H](NC(=O)[C@H](CCCNC(=N)N)NC(=O)[C@@H](NC(=O)[C@H](C)NC(=O)[C@@H](NC(=O)[C@@H](NC(=O)[C@H](CC(C)C)NC(=O)[C@H](CCCNC(=N)N)NC(=O)[C@@H](N)C(C)C)[C@@H](C)CC)C(C)C)C(C)C)C(=O)N[C@@H](CNC(=N)N)C(=O)N[C@@H](CCCNC(=N)N)C(=O)N[C@@H](CCCNC(=N)N)C(N)=O` (H-VRLIVAVRI[Agp]RR-NH2) the Activity (Staphylococcus aureus [1]) was “Active”, the “residual biofilm growth (% of control)” value (Staphylococcus aureus [2]) was 102.9% and the inhibition (Staphylococcus aureus [3]) was “Dose-dependent effect”.
For `CC[C@H](C)[C@H](NC(=O)[C@H](CCCNC(=N)N)NC(=O)[C@@H](NC(=O)[C@H](C)NC(=O)[C@@H](NC(=O)[C@@H](NC(=O)[C@H](CC(C)C)NC(=O)[C@H](CCCNC(=N)N)NC(=O)[C@@H](N)C(C)C)[C@@H](C)CC)C(C)C)C(C)C)C(=O)N[C@@H](CCN)C(=O)N[C@@H](CCCNC(=N)N)C(=O)N[C@@H](CCCNC(=N)N)C(N)=O` (H-VRLIVAVRI[Dab]RR-NH2), the Activity (Staphylococcus aureus [1]) was “Active”, the “residual biofilm growth (% of control)” value (Staphylococcus aureus [2]) was 90.8% and the inhibition (Staphylococcus aureus [3]) was “Dose-dependent effect”.
`CC[C@H](C)[C@H](NC(=O)[C@H](CCCNC(=N)N)NC(=O)[C@@H](NC(=O)[C@H](C)NC(=O)[C@@H](NC(=O)[C@@H](NC(=O)[C@H](CC(C)C)NC(=O)[C@H](CCCNC(=N)N)NC(=O)[C@@H](N)C(C)C)[C@@H](C)CC)C(C)C)C(C)C)C(=O)N[C@@H](CN)C(=O)N[C@@H](CCCNC(=N)N)C(=O)N[C@@H](CCCNC(=N)N)C(N)=O` (H-VRLIVAVRI[Dap]RR-NH2) was tested, and the Activity (Staphylococcus aureus [1]) was “Active”, the “residual biofilm growth (% of control)” value (Staphylococcus aureus [2]) was 15% and the inhibition (Staphylococcus aureus [3]) was “Dose-dependent effect”.
For `CC[C@H](C)[C@H](NC(=O)[C@H](CCCNC(=N)N)NC(=O)[C@@H](NC(=O)[C@H](C)NC(=O)[C@@H](NC(=O)[C@@H](NC(=O)[C@H](CC(C)C)NC(=O)[C@H](CCCNC(=N)N)NC(=O)[C@@H](N)C(C)C)[C@@H](C)CC)C(C)C)C(C)C)C(=O)N[C@@H](CCCN)C(=O)N[C@@H](CCCNC(=N)N)C(=O)N[C@@H](CCCNC(=N)N)C(N)=O` (H-VRLIVAVRI[Orn]RR-NH2), the Activity (Staphylococcus aureus [1]) was “Active”, the “residual biofilm growth (% of control)” value (Staphylococcus aureus [2]) was 39.3% and the inhibition (Staphylococcus aureus [3]) was “Dose-dependent effect”.
`CC[C@H](C)[C@H](NC(=O)[C@H](CCCNC(=N)N)NC(=O)[C@@H](NC(=O)[C@H](C)NC(=O)[C@@H](NC(=O)[C@@H](NC(=O)[C@H](CC(C)C)NC(=O)[C@H](CCCNC(=N)N)NC(=O)[C@@H](N)C(C)C)[C@@H](C)CC)C(C)C)C(C)C)C(=O)N[C@@H](CCCCNC(=N)N)C(=O)N[C@@H](CCCNC(=N)N)C(=O)N[C@@H](CCCNC(=N)N)C(N)=O` (H-VRLIVAVRI[hArg]RR-NH2) was tested, and the Activity (Staphylococcus aureus [1]) was “Active”, the “residual biofilm growth (% of control)” value (Staphylococcus aureus [2]) was 37.2% and the inhibition (Staphylococcus aureus [3]) was “Dose-dependent effect”.
`CC[C@H](C)[C@H](NC(=O)[C@H](CC(C)C)NC(=O)[C@H](CCCNC(=N)N)NC(=O)[C@@H](N)C(C)C)C(=O)N[C@H](C(=O)N[C@@H](C)C(=O)N[C@H](C(=O)N[C@@H](CCCNC(=N)N)C(=O)N[C@@H](CCNC(=N)N)C(=O)N[C@@H](Cc1c[nH]c2ccccc12)C(=O)N[C@@H](CCCNC(=N)N)C(=O)N[C@@H](CCCNC(=N)N)C(N)=O)C(C)C)C(C)C` (H-VRLIVAVR[Agb]WRR-NH2) was tested, and the Activity (Staphylococcus aureus [1]) was “Active”, the “residual biofilm growth (% of control)” value (Staphylococcus aureus [2]) was 103.6% and the inhibition (Staphylococcus aureus [3]) was “Dose-dependent effect”.

Source: ChEMBL document CHEMBL4376833, “Influence of Non-natural Cationic Amino Acids on the Biological Activity Profile of Innate Defense Regulator Peptides” (J Med Chem, 2019)
